Measurements from patent publication US20110059909A1, “METHODS FOR TREATING INFLAMMATORY DISORDERS” (priority 2004, published 2011).
Each block holds one molecule with its values, some of them ahead of it.

How the values were obtained:
rat primary astrocytes [1] = test: Assay for NO production (nitrite, Griess reagent) in LPS/IFNγ-stimulated primary astrocytes; assay type: cell-based; settings: for LPS/IFNγ-induced NO production: primary astrocytes, LPS/IFNγ (1 μg/ml; 10 U/ml), NO at 24 h; for Reversal of PDMP-mediated inhibition of LPS/IFNγ-induced NO production: PDMP 50 μM plus exogenous glycosphingolipid 5 and 10 μM, 0.5 h before LPS/IFNγ
Description: (§1) Primary astrocyte-enriched cultures were prepared from the whole cortex of one day old Sprague-Dawley rats as described earlier (Pahan et al., 1998b). Briefly, the cortex was rapidly dissected in ice-cold calcium/magnesium free Hanks Balanced Salt Solution (HBSS) (Gibco, Grand Island, N.Y.) at pH 7.4 as described previously (Won et al., 2001). The tissue was then minced, incubated in HBSS containing trypsin (2 mg/ml) for 20 min and washed twice in plating medium containing 10% FBS and 10 μg/ml gentamicin, and then disrupted by triturating through a Pasteur pipette following which cells were seeded in 75-cm^2 culture flasks (Falcon, Franklin, N.J.). After incubation at 37° C. in 5% CO2 for 1 day, the medium was completely changed to the culture medium (DMEM containing 5% FBS and 10 μg/ml gentamicin). The cultures received half exchanges with fresh medium twice a week. After 14-15 days the cells were shaken for at least 24 h on an orbital shaker to remove the microglia and then seeded on multi-well tissue culture dishes. The cells were incubated with serum-free DMEM for 24 h prior to the incubation with drugs.
Cells were cultured in 12-well plastic tissue culture plates. Following appropriate treatment, production of NO was determined by an assay of the culture supernatant for nitrite (Green et al., 1982). Briefly, 100 μl of culture supernatant was allowed to react with 100 μl of Griess reagent. The optical density of the assay samples was measured spectrophotometrically at 570 nm. Nitrite concentrations were calculated from a standard curve derived from the reaction of NaNO2 in fresh media.

iNOS = iNOS mRNA (RT-PCR) and protein (immunoblot) in LPS/IFNγ-stimulated primary astrocytes; assay type: cell-based, rat; settings: primary astrocytes; LPS/IFNγ (1 μg/ml; 10 U/ml); mRNA 6 h, protein 24 h
Description: as §1
(§2) For iNOS protein, the cells were washed with cold Tris buffered saline (TBS; 20 mM Trizma base, and 137 mM NaCl, pH 7.5), lysed in 1×SDS sample loading buffer (62.5 mM Trizma base, 2% w/v SDS, 10% glycerol), following sonication and centrifugation at 15,000×g for 5 min, the supernatant was used for the iNOS western immunoblot assay. The protein concentration of samples was determined with the detergent compatible protein assay reagent (Bio-Rad Laboratories, CA) using bovine serum albumin (BSA) as the standard. Sample was boiled for 3 min with 0.1 volumes of 10% β-mercaptoethanol and 0.5% bromophenol blue mix. Fifty μg of total cellular protein was resolved by electrophoresis on 8 or 12% polyacrylamide gels, electro-transferred to polyvinylidene difluoride (PVDF) filter and blocked with Tween 20 containing Tris-buffered saline (TBST; 10 mM Trizma base-pH 7.4, 1% Tween 20, and 150 mM NaCl) with 5% skim milk. After incubation with antiserum against iNOS (BD PharMingen, CA), rat GalT-2 (Abjent Inc., CA), H-Ras (Upstate Biotechnology, CA), GFAP (Santa Cruz Biotech, CA), or phospho-specific ERK1/2 (Cell signaling Tech Inc., MA), or pIκ-B (Signal Transduction), in PVDF buffer for 2 h at room temperature, the filters were washed 3 times with TBST buffer and then incubated with horseradish peroxidase conjugated anti-rabbit or mouse IgG for 1 h. The membranes were detected by autoradiography using ECL-plus (Amersham Pharmacia Biotech) after washing with TBST buffer.
5 μg total RNA was treated with 2 U DNAse I (bovine pancreas, Sigma) for 15 min at room temperature in 18 μl volume containing 1×PCR buffer and 2 mM MgCl2. It was then inactivated by incubation with 2 μl of 25 mM EDTA at 65° C. for 15 min. 2 μl of random primers were added and annealed to the RNA according to the manufacturer's protocol. cDNA was synthesized in a 50 μl reaction containing 5 μg of total RNA and 50-100 U reverse transcriptase by incubating the tubes at 42° C. for 60 min. PCR amplification was conducted in 25 μl of reaction mixture with 1.0 μl of cDNA, […] of each primer and under the manufacturer's Taq polymerase conditions (Takara, Takara Shuzo Co. Ltd, Japan). The sequence of primers used for PCR amplification are as follows; iNOS, (Forward-5′ […] 3′, SEQ ID NO:3; Reverse-5′ […] 3′, SEQ ID NO:4), GalT-2 (Forward-5′ tggtacaagctagaggc 3′, SEQ ID NO:5; Reverse-5′ gcatggcacattgaa C-3′, SEQ ID NO:6), GAPDH (Forward-5′ […] 3′, SEQ ID NO:7; Reverse-5′ cttcacgaagttgtcattgagggca3′, SEQ ID NO:8), TNFα (Forward-5′ […] g-3′, SEQ ID NO:9; Reverse-5′[…]-3′, SEQ ID NO:10) and IL-1β (Forward-5′[…]-3′, SEQ ID NO:11; reverse-5′[…]-3′, SEQ ID NO:12).

small GTPase Ras = test: Quantification of Ras activation (GST-Raf-1 RBD pull-down) in primary astrocytes; assay type: cell-based, rat; settings: for LacCer-mediated Ras activation: NAC 10 mM or PDTC 100 μM 1 h, LacCer 5 min
Description: After stimulation, primary astrocytes in 6-well plates were washed with ice cold PBS and lysed in membrane lysis buffer (MLB; 0.5 ml of 25 mM HEPES, pH 7.5, 150 mM NaCl, 1% Igepal CA-630, 0.25% sodium deoxycholate, 10% glycerol, 10 mM MgCl2, 1 mM EDTA, 25 mM NaF, 1 mM of sodium orthovanadate, and EDTA free Complete™ protease inhibitor cocktail). After centrifugation (5,000×g) at 4° C. for 5 min, supernatant was used for Ras activation assay. One hundred μg of supernatant was used for binding with agarose conjugated Ras-binding domain (RBD) of Raf-1 which was expressed in BL21 (Invitrogen), Escherichia coli strain, transformed by pGEX-2T-GST-RBD in the presence of 0.1 mM of IPTG as described previously (Herrmann et al., 1995). The binding reaction was performed at 4° C. for 30 min in MLB. Following washing with MLB three times, Ras-RBD complex were denatured by adding of 2×SDS sample buffer. Ras protein was identified by western blot analysis with Ras antibodies from Upstate Biotechnology.

rat primary astrocytes [2] = test: BrdU incorporation assay, proliferation of primary astrocytes; assay type: cell-based; settings: for Proliferation of astrocytes induced by the substance itself: increasing doses (1, 5 and 10 μM for GSL), 18 h
Description: as §1
Proliferation of primary astrocytes was assayed by using the Cell proliferation ELISA, BrdU colorimetric assay kit (Roche, Germany) according to manufacturer's protocol. Briefly, cells were seeded in 96 well plates in quadruplicate and following overnight serum starvation were stimulated with mitogenic stimulants. 2 h before termination of proliferation assay, BrdU (10 μM) was added to each well following which cells were fixed and levels of incorporated BrdU were assayed by using a conjugated anti-BrdU enzyme. Colorimetric analysis was done by measuring absorbance at 370 nm using a spectramax MAX 190 (Molecular devices) multi-well plate reading spectrophotometer.

PI-3K = test: PI-3 kinase activity assay; assay type: cell-based, rat; settings: exogenous lipid
Description: Cells after stimulation in serum-free DMEM/F-12 were lysed with ice-cold lysis buffer containing 1% (vol/vol) NP-40,100 mM NaCl, 20 mM Tris (pH 7.4), 10 mM iodoacetamide, 10 mM NaF, 1 mM sodium orthovanadate, 1 mM […], 1 μg/ml leupeptin, 1 μg/ml antipain, 1 mg/ml aprotinin, and 1 μg/ml pepstatin A. Lysates were incubated at 4° C. for 15 min, followed by centrifugation at 13,000 g for 15 min. The supernatant was pre-cleared with protein G-Sepharose beads (Pharmacia Biotech) for 1 h at 4° C. followed by the addition of 1 μg/ml p85α monoclonal antibody. After 2 h of incubation at 4° C., protein G-Sepharose beads were added and the resulting mixture was further incubated for 1 h at 4° C. The immunoprecipitates were washed twice with lysis buffer, once with phosphate-buffered saline (PBS), once with 0.5 M LiCl and 100 mM Tris (pH 7.6), once in water, and once in kinase buffer (5 mM MgCl2, 0.25 mM EDTA, 20 mM HEPES, pH 7.4). PI-3kinase activity was determined as already described (Ward et al., 1992; Pahan et al., 1999) using a lipid mixture of 100 μl of 0.1 mg/ml PI and 0.1 mg/ml phosphatidylserine dispersed by sonication in 20 mM HEPES (pH 7.0) and 1 mM EDTA. The reaction was initiated by the addition of 20 of [γ-32P] […]

GFAP = GFAP mRNA (real time PCR) and protein (immunoblot) in TNFα-stimulated primary astrocytes; assay type: cell-based, rat
Description: as §2

[3] = cited from earlier work
ERK1/2 = ERK1/2 activation (phospho-ERK1/2 immunoblot) in primary astrocytes; assay type: cell-based, rat; settings: pretreated 0.5 h, TNFα 20 min
Description: as §2

LacCer-mediated Ras activation (small GTPase Ras): inhibited
Molecule: S=C(S)N1CCCC1 [PDTC, pyrrolidine dithiocarbamate]
LPS/IFNγ-induced NO production (rat primary astrocytes [1]): blocked
LPS/IFNγ-induced iNOS mRNA and protein levels (iNOS): blocked

Molecule: galactosylceramide [GalCer]
Reversal of PDMP-mediated inhibition of LPS/IFNγ-induced NO production (rat primary astrocytes [1]): did not reverse
Proliferation of astrocytes induced by the substance itself (rat primary astrocytes [2]; BrdU incorporation): neither induced proliferation

Reversal of DMS-mediated inhibition of PI-3K activation (PI-3K): able to reverse
Reversal of DMS-mediated inhibition of Ras activation (small GTPase Ras; exogenous lipid): reverses
Molecule: CCCCCCCCCCCCC/C=C/[C@@H](O)[C@@H](N)COP(=O)(O)O [S1P, sphingosine-1-phosphate]
Reversal of DMS-mediated inhibition of TNFα-induced GFAP expression (GFAP; exogenous lipid): reversed
Reversal of PDMP-mediated inhibition of TNFα-induced proliferation (rat primary astrocytes [2]; PDMP 25 μM plus exogenous lipid): could not be reversed
Reversal of DMS-mediated inhibition of TNFα-induced proliferation (rat primary astrocytes [2]; exogenous lipid): reversed
Reversal of PD98059-mediated inhibition of TNFα-induced proliferation (rat primary astrocytes [2]; exogenous lipid): could not be reversed
Proliferation of astrocytes induced by the substance itself (rat primary astrocytes [2]; BrdU incorporation): induced astrocyte proliferation

Molecule: CCCCN1CC(O)C(O)C(O)C1CO [Miglustat, 1,5-(butylimino)-1,5-dideoxy-D-glucitol]
Solubility in water [3]: soluble in water

Molecule: COc1cccc(-c2cc(=O)c3ccccc3o2)c1N [PD98059]
TNFα-induced ERK1/2 phosphorylation (ERK1/2): inhibited
TNFα-induced GFAP mRNA and protein expression (GFAP; TNFα 1 ng/ml, mRNA 8 h, protein 18 h): inhibited
LPS/IFNγ-induced NO production (rat primary astrocytes [1]): inhibition
LPS/IFNγ-induced iNOS mRNA and protein levels (iNOS): inhibition
TNFα-induced astrocyte proliferation (rat primary astrocytes [2]; pretreated 0.5 h (AS: 48 h after transfection), TNFα 1 ng/ml 18 h, BrdU incorporation): inhibited

LacCer-mediated Ras activation (small GTPase Ras): inhibited
Molecule: CC(=O)N[C@@H](CS)C(=O)O [NAC, N-Acetyl cysteine]
LPS/IFNγ-induced NO production (rat primary astrocytes [1]): blocked
LPS/IFNγ-induced iNOS mRNA and protein levels (iNOS): blocked

Molecule: Glucosylceramide [GluCer]
Reversal of PDMP-mediated inhibition of LPS/IFNγ-induced NO production (rat primary astrocytes [1]): did not reverse
Proliferation of astrocytes induced by the substance itself (rat primary astrocytes [2]; BrdU incorporation): did not have a similar effect
